# Test results as given in US20160074401A1, “COMPOSITIONS AND METHODS UTILIZING PHOSPHODIESTERASE INHIBITORS TO TREAT BLAST-INDUCED TINNITUS AND/OR HEARING LOSS” (WAYNE STATE UNIVERSITY, priority 2013, published 2016).
# What was measured:
# [1] = test system: focal cerebral cryolesion; conditions: treatment following cryolesion; cited from earlier work
# [2] = upon oral intake; cited from earlier work
# [3] = test system: rats exposed to embolic stroke; conditions: sildenafil treated rats; cited from earlier work
# [4] = test system: blast-exposed Sprague Dawley rats (blast-induced tinnitus); experiment: Gap-detection testing (acoustic startle) for blast-induced tinnitus
# Description: Thirty adult Sprague Dawley rats (110 days old, 250-300 g) were purchased from Charles River Laboratories (Wilmington, Mass.).
# Animals underwent 8 rounds of behavior testing to stabilize baseline Gap-detection and PPI performance prior to blast or sham-blast exposure. […] Briefly, each rat was placed in a custom-built polycarbonate restrainer (FIG. 1) and set inside a lit startle monitor cabinet equipped with two ceiling speakers for background sound/prepulses and startle stimuli. Restrainers were mounted on top of a platform connected to a piezoelectric transducer, which measured downward startle force. Acoustic stimuli and startle force were calibrated using a Newton impulse calibrator (Kinder Scientific) and a microphone (Model 4016; ACO Pacific, Belmont, Calif.).
# During the Gap-detection procedure, rats were exposed to constant 60 dB sound pressure level (SPL) background noise consisting of 2 kHz bandpass signals from 2-4 kHz, 6-8 kHz, 8-10 kHz, 10-12 kHz, 14-16 kHz, 18-20 kHz, or 26-28 kHz, or BBN (2-30 kHz). They were subjected to either a 50 ms white noise burst startle stimulus (startle only; dominating plateau from 3-37 kHz with energy up to 97.5 kHz) presented at 115 dB or the startle stimulus preceded by a 40 ms silent period beginning 90 ms before the startle stimulus (Gap). For each testing session, rats were presented 8 times with the startle only and Gap conditions for each frequency bandpass signal and BBN. The PPI procedure was identical to the Gap-detection procedure except that no background sound was presented. Rats were subjected to either the startle stimulus alone (startle only) or the startle stimulus preceded by a 40 ms prepulse beginning 90 ms before the startle stimulus. Prepulses (60 dB, SPL) consisted of the same frequencies as those used for background noise.
# A two-minute acclimatization period was given at the beginning of each session, followed by two startle stimuli presented without background sound to trigger any initial, exaggerated startle reflexes. Gap-detection and PPI testing sessions lasted a little over thirty minutes each. […]
# [5] = test system: blast-exposed Sprague Dawley rats (wave 1 amplitude); experiment: ABR wave 1 (P1N1) amplitude after blast exposure; type: in vivo, rat; conditions: 28 kHz
# Description: ABRs were recorded to evaluate hearing thresholds. Each rat was anesthetized using a mixture of air (0.41/min) and isoflurane (2-3%, v/v) and placed in a prone position with its head fixed to a stereotaxic frame. Body temperature was maintained using a warming blanket connected to a thermostatic controller (Harvard Instruments, Holliston, Mass.). Acoustic stimuli consisted of 0.1 ms clicks or 10 ms pure-tone bursts presented at 4, 8, 12, 16, 20, or 28 kHz and delivered through a speaker tube inserted into the external auditory canal. Three subcutaneous platinum-coated tungsten electrodes were used to record ABR waveforms, with the reference electrode inserted below the pinna ipsilateral to the speaker tube, the grounding electrode inserted below the contralateral pinna, and the recording electrode inserted at the vertex. […] Data were recorded using BioSigRP® and SigGenRP® software (TDT, Alachua, Fla.) installed on an IBM computer connected to System 3 TDT workstation.
# There is a significant reduction in wave 1 amplitudes in human subjects suffering from tinnitus despite a seemingly normal audiogram. In order to assess the possibility of underlying wave 1 amplitude reduction despite recovery of ABR thresholds, wave 1 amplitudes for 28 kHz frequency were measured at pre-blast and at 6 weeks post-blast and compared between the Treated and Untreated groups (FIGS. 7A and 7B). […]
# [6] = test system: Neurospheres isolated from the subventricular zone of adult rat brains; conditions: neurospheres treated with sildenafil; cited from earlier work
Structure (SMILES),Effects after focal cerebral cryolesion [1],Tmax [2] [min],Effects after embolic stroke [3],"Gap-detection in Sham group (drug, no blast): tinnitus symptoms produced by the drug ([4]; Sham group: sildenafil 10 mg/kg, no blast exposure, throughout the study)","Effect on high-frequency tinnitus (overall) ([4]; high-frequency (26-28 kHz) tinnitus, reemerged afterwards)","Duration of therapeutic effect on blast-induced tinnitus (Gap-detection) ([4]; sildenafil 10 mg/kg oral gavage, two 7-day rounds)","Wave 1 (P1N1) amplitude, Treated vs Untreated ([5]; exposed ear, 6 weeks post-blast)","Decrease of wave 1 amplitude ([5]; 6 weeks after triple blast exposure, Treated group (same in Untreated)) [%]",cGMP concentration [6]
CCCOc1ccccc1-c1nc2nn[nH]c2c(=O)[nH]1 [Zaprinast],"improved functional recovery, reduced oxidative stress, and prevention of apoptotic cell death",,,,,,,,
"CCCc1nn(C)c2c(=O)[nH]c(-c3cc(S(=O)(=O)N4CCN(C)CC4)ccc3OCC)nc12 [sildenafil, 1-[4-ethoxy-3-(6,7-dihydro-1-methyl-7-oxo-3-propyl-1H-pyrazolo[4,3-d]pyrimidin-5-yl)phenylsulfonyl]-4-methylpiperazine]",,≤ 11,"improvement in angiogenesis, selective increase in cerebral blood flow, and enhanced neurological functional recovery up to 6 weeks post-injury",the drug itself did not produce tinnitus symptoms,suppressed high-frequency tinnitus from 3-6 weeks post-blast,maintained up to week 6,no significant differences between the two groups at time-matched points,45,increased cGMP concentration
